Laboratory results as given in patent US20260374781A1, “NOVEL TRIHETEROCYCLIC COMPOUNDS” (IDENCE CO., LTD., priority 2022, published 2026).

Test system: AsPC-1 cells
Experiment: Cell Proliferation Assay, AsPC-1 (CellTiter-Glo 2.0 viability)
Format: cell-based
Settings: AsPC-1 pancreatic cancer (KRAS G12D mutation)
Method: Test Example 3: Cell Proliferation Assay
Cell viability testing of test compounds in AsPC-1 pancreatic cancer (KRAS G12D mutation) or SW480 colon cancer (KRAS G12V mutation) cells for 72 hours
The reference compound Staurosporine was purchased from Sigma-Aldrich (Saint Louis, MI), and CellTiter-Glo® 2.0 Luminescent cell viability assay reagent (cat #G9243) was purchased from Promega (Madison, WI). AsPC-1 and SW480 cell lines were purchased from American Type Culture Collection (Manassas, VA). AsPC-1 cells were cultured with RPMI-1640 (ATCC, cat #30-2001) and SW480 cells were cultured with DMEM (ATCC cat #30-2002).
A medium supplemented with 10% FBS (Sigma-Aldrich, cat #F2442) and 100 µg/mL of penicillin-streptomycin (Sigma-Aldrich, cat #P4333) was used. Cells were cultured at 37 °C in a humidified atmosphere of 5% CO2 and 95% air.
• 1. The test compound and reference compound, Staurosporine were dissolved in DMSO solution to prepare 20 mM (test compound) and 10 mM (control compound, Staurosporine) in the Source Plate and diluted with DMSO to 3-fold and 10 doses. • 2. From the Source Plate, 10 volumes of 125 nL test compound or 25 nL reference compound were dispensed into wells of a 384-well culture plate (VWR, cat #82050-076) using Echo 655. • 3. 25 μL of culture medium including 2000 AsPC-1 or SW480 cells was dispensed into each 384-well cell culture plate. • 4. Cells were cultured with the compound for 72 hours at 37 °C and 5% CO2 conditions. • 5. 25 μL of CellTiter-Glo 2.0 reagent was added to each well of the plate. • 6. The contents were mixed for 2 minutes on an orbital shaker, and the luminescence signal was stabilized at room temperature for 15 minutes. • 7. Luminescence signals were measured with an Envision 2104 Multilabel Reader (PerkinElmer, Santa Clara, CA), and the number of surviving cells was determined through quantification of ATP present in each culture. • 8. IC50 values were calculated based on the Sigmoidal dose-response equation in the GraphPad Prism 4 program.

Row | IC50 (Homo sapiens, ASPC1, 72 h) | IC50 (72 hours) | Compound
1 | 1 to 10 µM | – | C#Cc1c(F)ccc2cc(O)cc(-c3nc4c5c(nc(OC[C@@]67CCCN6C[C@H](F)C7)nc5c3F)N(C(C)c3cccnc3N)C[C@H](C)O4)c12 (mixture of isomers) [Example 6, 4-((8S)-10-(1-(2-aminopyridin-3-yl)ethyl)-4-fluoro-2-(((2R,7aS)-2-fluorotetrahydro-1H-pyrrolizin-7a(5H)-yl)methoxy)-8-methyl-9,10-dihydro-8H-7-oxa-1,3,6,10-tetraazacyclohepta[de]naphthalen-5-yl)-5-ethynyl-6-fluoronaphthalen-2-ol]
2 | > 10 µM | – | C#Cc1c(F)ccc2cc(O)cc(-c3nc4c5c(nc(OCC67CC(=C)CN6CC(=C)C7)nc5c3F)N(C(C)c3cccnc3N)C[C@H](C)O4)c12 (stereo partly drawn) [Example 4, 4-((8S)-10-(1-(2-aminopyridin-3-yl)ethyl)-2-((2,6-dimethylenetetrahydro-1H-pyrrolizin-7a(5H)-yl)methoxy)-4-fluoro-8-methyl-9,10-dihydro-8H-7-oxa-1,3,6,10-tetraazacyclohepta[de]naphthalen-5-yl)-5-ethynyl-6-fluoronaphthalen-2-ol]
3 | > 10 µM | – | C#Cc1c(F)ccc2cc(O)cc(-c3nc4c5c(nc(OCC6(CN7CCOCC7)CC6)nc5c3F)N(C(C)c3cccnc3N)C[C@H](C)O4)c12 (stereo partly drawn) [Example 5, 4-((8S)-10-(1-(2-aminopyridin-3-yl)ethyl)-4-fluoro-8-methyl-2-((1-(morpholinomethyl)cyclopropyl)methoxy)-9,10-dihydro-8H-7-oxa-1,3,6,10-tetraazacyclohepta[de]naphthalen-5-yl)-5-ethynyl-6-fluoronaphthalen-2-ol]
4 | > 10 µM | – | C#Cc1c(F)ccc2cc(O)cc(-c3nc4c5c(nc(OC[C@@]67CCCN6C[C@H](F)C7)nc5c3F)N([C@@H](C)c3cccnc3N)C[C@H](C)O4)c12 [Example 6b, 4-((S)-10-((S)-1-(2-aminopyridin-3-yl)ethyl)-4-fluoro-2-(((2R,7aS)-2-fluorotetrahydro-1H-pyrrolizin-7a(5H)-yl)methoxy)-8-methyl-9,10-dihydro-8H-7-oxa-1,3,6,10-tetraazacyclohepta[de]naphthalen-5-yl)-5-ethynyl-6-fluoronaphthalen-2-ol]
5 | > 10 µM | – | C#Cc1c(F)ccc2cc(O)cc(-c3nc4c5c(nc(OCC6CC(F)(F)CN6C)nc5c3F)N(C(C)c3cccnc3N)C[C@H](C)O4)c12 (stereo partly drawn) [Example 7, 4-((8S)-10-(1-(2-aminopyridin-3-yl)ethyl)-2-((4,4-difluoro-1-methylpyrrolidin-2-yl)methoxy)-4-fluoro-8-methyl-9,10-dihydro-8H-7-oxa-1,3,6,10-tetraazacyclohepta[de]naphthalen-5-yl)-5-ethynyl-6-fluoronaphthalen-2-ol]
6 | > 10 µM | – | C#Cc1c(F)ccc2cc(O)cc(-c3nc4c5c(nc(OC[C@@H]6CCN6CC(F)F)nc5c3F)N(C(C)c3cccnc3N)C[C@H](C)O4)c12 (stereo partly drawn) [Example 8, 4-((8S)-10-(1-(2-aminopyridin-3-yl)ethyl)-2-(((S)-1-(2,2-difluoroethyl)azetidin-2-yl)methoxy)-4-fluoro-8-methyl-9,10-dihydro-8H-7-oxa-1,3,6,10-tetraazacyclohepta[de]naphthalen-5-yl)-5-ethynyl-6-fluoronaphthalen-2-ol]
7 | 1 to 10 µM | – | C#Cc1c(F)ccc2cc(O)cc(-c3nc4c5c(nc(OCC67COC(C6)C7)nc5c3F)N(C(C)c3cccnc3N)C[C@H](C)O4)c12 (stereo partly drawn) [Example 9, 4-((8S)-2-((2-oxabicyclo[2.1.1]hexan-4-yl)methoxy)-10-(1-(2-aminopyridin-3-yl)ethyl)-4-fluoro-8-methyl-9,10-dihydro-8H-7-oxa-1,3,6,10-tetraazacyclohepta[de]naphthalen-5-yl)-5-ethynyl-6-fluoronaphthalen-2-ol]
8 | > 10 µM | – | C[C@H]1CN([C@@H](C)c2cccnc2N)c2nc(OC[C@@]34CCCN3C[C@H](F)C4)nc3c(F)c(-c4cc(O)cc5ccc(F)c(F)c45)nc(c23)O1 [Example 10b, 4-((S)-10-((S)-1-(2-aminopyridin-3-yl)ethyl)-4-fluoro-2-(((2R,7aS)-2-fluorotetrahydro-1H-pyrrolizin-7a(5H)-yl)methoxy)-8-methyl-9,10-dihydro-8H-7-oxa-1,3,6,10-tetraazacyclohepta[de]naphthalen-5-yl)-5,6-difluoronaphthalen-2-ol]
9 | > 10 µM | – | CC(c1cccnc1N)N1C[C@H](C)Oc2nc(-c3cc(O)cc(Cl)c3C3CC3)c(F)c3nc(OC[C@@]45CCCN4C[C@H](F)C5)nc1c23 (stereo partly drawn) [Example 11, 3-((8S)-10-(1-(2-aminopyridin-3-yl)ethyl)-4-fluoro-2-(((2R,7aS)-2-fluorotetrahydro-1H-pyrrolizin-7a(5H)-yl)methoxy)-8-methyl-9,10-dihydro-8H-7-oxa-1,3,6,10-tetraazacyclohepta[de]naphthalen-5-yl)-5-chloro-4-cyclopropylphenol]
10 | – | > 10 µM | C#Cc1c(F)ccc2cc(O)cc(-c3nc4c5c(nc(OC[C@@]67CCCN6C[C@H](F)C7)nc5c3F)N([C@@H](C)c3cccnc3N)CCO4)c12 [Example 13b, 4-(10-((S)-1-(2-aminopyridin-3-yl)ethyl)-4-fluoro-2-(((2R,7aS)-2-fluorotetrahydro-1H-pyrrolizin-7a(5H)-yl)methoxy)-9,10-dihydro-8H-7-oxa-1,3,6,10-tetraazacyclohepta[de]naphthalen-5-yl)-5-ethynyl-6-fluoronaphthalen-2-ol]
11 | 1 to 10 µM | – | CCc1c(F)ccc2cc(O)cc(-c3nc4c5c(nc(OC[C@@]67CCCN6C[C@H](F)C7)nc5c3F)N([C@@H](C)c3cccnc3N)CCO4)c12 [Example 14b, 4-(10-((S)-1-(2-aminopyridin-3-yl)ethyl)-4-fluoro-2-(((2R,7aS)-2-fluorotetrahydro-1H-pyrrolizin-7a(5H)-yl)methoxy)-9,10-dihydro-8H-7-oxa-1,3,6,10-tetraazacyclohepta[de]naphthalen-5-yl)-5-ethyl-6-fluoronaphthalen-2-ol]
12 | 1 to 10 µM | – | C#Cc1c(F)ccc2cc(O)cc(-c3nc4c5c(nc(OC[C@@H]6CC(F)(F)CN6C)nc5c3F)N(C(C)c3cccnc3N)CCO4)c12 (stereo partly drawn) [Example 15, 4-(10-(1-(2-aminopyridin-3-yl)ethyl)-2-(((S)-4,4-difluoro-1-methylpyrrolidin-2-yl)methoxy)-4-fluoro-9,10-dihydro-8H-7-oxa-1,3,6,10-tetraazacyclohepta[de]naphthalen-5-yl)-5-ethynyl-6-fluoronaphthalen-2-ol]
13 | 1 to 10 µM | – | C=C1CN2CC(=C)CC2(COc2nc3c4c(nc(-c5cc(O)cc6ccc(F)c(CC)c56)c(F)c4n2)OCCN3C(C)c2cccnc2N)C1 (centres unmarked) [Example 19, 4-(10-(1-(2-aminopyridin-3-yl)ethyl)-2-((2,6-dimethylenetetrahydro-1H-pyrrolizin-7a(5H)-yl)methoxy)-4-fluoro-9,10-dihydro-8H-7-oxa-1,3,6,10-tetraazacyclohepta[de]naphthalen-5-yl)-5-ethyl-6-fluoronaphthalen-2-ol]
14 | > 10 µM | – | CCc1c(F)ccc2cc(O)cc(-c3nc4c5c(nc(OC[C@@]67CCCN6C[C@H](F)C7)nc5c3F)N(C(C)c3ccccc3N)CCO4)c12 (stereo partly drawn) [Example 21, 4-(10-(1-(2-aminophenyl)ethyl)-4-fluoro-2-(((2R,7aS)-2-fluorotetrahydro-1H-pyrrolizin-7a(5H)-yl)methoxy)-9,10-dihydro-8H-7-oxa-1,3,6,10-tetraazacyclohepta[de]naphthalen-5-yl)-5-ethyl-6-fluoronaphthalen-2-ol]
15 | 1 to 10 µM | – | CCc1c(F)ccc2cc(O)cc(-c3nc4c5c(nc(OCC6(CN7CC[C@@H](F)C7)CC6)nc5c3F)N(C(C)c3cccnc3N)CCO4)c12 (stereo partly drawn) [Example 26, 4-(10-(1-(2-aminopyridin-3-yl)ethyl)-4-fluoro-2-((1-(((R)-3-fluoropyrrolidin-1-yl)methyl)cyclopropyl)methoxy)-9,10-dihydro-8H-7-oxa-1,3,6,10-tetraazacyclohepta[de]naphthalen-5-yl)-5-ethyl-6-fluoronaphthalen-2-ol]
16 | > 10 µM | – | CCc1c(F)ccc2cc(O)cc(-c3nc4c5c(nc(OC[C@@H]6CCCN6CC(F)F)nc5c3F)N(C(C)c3cccnc3N)CCO4)c12 (stereo partly drawn) [Example 27, 4-(10-(1-(2-aminopyridin-3-yl)ethyl)-2-(((S)-1-(2,2-difluoroethyl)pyrrolidin-2-yl)methoxy)-4-fluoro-9,10-dihydro-8H-7-oxa-1,3,6,10-tetraazacyclohepta[de]naphthalen-5-yl)-5-ethyl-6-fluoronaphthalen-2-ol]
17 | > 10 µM | – | CCc1c(F)ccc2cc(O)cc(-c3nc4c5c(nc(OC[C@@]67CCCN6C[C@H](F)C7)nc5c3F)N(C)CCO4)c12 [Example 28, 5-ethyl-6-fluoro-4-(4-fluoro-2-(((2R,7aS)-2-fluorotetrahydro-1H-pyrrolizin-7a(5H)-yl)methoxy)-10-methyl-9,10-dihydro-8H-7-oxa-1,3,6,10-tetraazacyclohepta[de]naphthalen-5-yl)naphthalen-2-ol]
